Laboratory results taken from PMC6736568, “Discovery of Novel Anti-cryptosporidial Activities From Natural Products by in vitro High-Throughput Phenotypic Screening” (Frontiers in Microbiology, 2019).
Read-outs that look alike come from different tables or passages of the source.

Legend:
Cryptosporidium parvum = experiment: qRT-PCR assay of the growth of C. parvum in vitro in HCT-8 host cells (primary and secondary screening, EC50); type: cell-based; settings: for Inhibition (%): primary screening at 10 uM; for % Inhibition (3.3 uM): secondary screening at 3.3 uM
[1] = primary screening at 10 uM, treated vs control
[2] = primary screening at 10 uM, from Hs18S ΔCT

Molecule | Hs18S ΔCT (HCT-8 host cells (Hs18S); [1]) | Cytotoxicity (%) (HCT-8 host cells (Hs18S); [2]) | Inhibition (%) (Cryptosporidium parvum) | further results
CC(=O)O[C@H]1CC[C@@]2(C)[C@H](CC[C@@H]3[C@@H]2CC[C@]2(C)[C@@H](C4=CC(=O)OC4)[C@@H](OC(C)=O)C[C@]32O)C1 [GITOXIGENIN DIACETATE] | 8.90 | – | – | cytotoxicity at 10 µM (in vitro): 99.8%
CC(=O)O[C@H]1C[C@H](O[C@H]2[C@@H](O)C[C@H](O[C@H]3[C@@H](O)C[C@H](O[C@H]4CC[C@@]5(C)[C@H](CC[C@@H]6[C@@H]5C[C@@H](O)[C@]5(C)[C@@H](C7=CC(=O)OC7)CC[C@]65O)C4)O[C@@H]3C)O[C@@H]2C)O[C@H](C)[C@H]1O[C@@H]1O[C@H](CO)[C@@H](O)[C@H](O)[C@H]1O [LANATOSIDE C] | 8.93 | – | – | cytotoxicity at 10 µM (in vitro): 99.8%
C[C@@H]1O[C@@H](O[C@H]2C[C@@H](O)[C@]3(CO)[C@H]4[C@H](O)C[C@]5(C)[C@@H](C6=CC(=O)OC6)CC[C@]5(O)[C@@H]4CC[C@]3(O)C2)[C@H](O)[C@H](O)[C@H]1O [OUABAIN] | 11.65 | – | – | cytotoxicity at 41 h, 10 µM (in vitro): 100%
CO[C@H]1[C@H](O)[C@H](O[C@H]2CC[C@@]3(C=O)[C@H](CC[C@@H]4[C@@H]3CC[C@]3(C)[C@@H](C5=CC(=O)OC5)CC[C@]43O)C2)O[C@@H](C)[C@@H]1O [PERUVOSIDE] | 10.85 | – | – | cytotoxicity at 10 µM (in vitro): 99.9%
COc1cc([C@@H]2c3cc4c(cc3[C@H](O)[C@H]3COC(=O)[C@H]23)OCO4)cc(OC)c1OC [PODOFILOX] | 5.42 | – | – | cytotoxicity at 41 h, 10 µM (in vitro): 97.7%
CC(C)=CCc1c2c(c3occ(-c4ccc(O)c(O)c4)c(=O)c3c1O)C=CC(C)(C)O2 [POMIFERIN] | – | – | – | Hs18S ΔCT (HCT-8 host cells (Hs18S); human, 41 h, 10 μM): 6.42; cytotoxicity at 41 h, 10 µM (in vitro; human): 98.8%
C[C@@H]1O[C@@H](O[C@@H]2C=C3CC[C@@H]4[C@H](CC[C@]5(C)[C@@H](c6ccc(=O)oc6)CC[C@]45O)[C@@]3(C)CC2)[C@H](O)[C@H](O)[C@H]1O [PROSCILLARIDIN] | 13.28 | – | – | cytotoxicity at 10 µM (in vitro): 100%
C[C@]12CC[C@H]3[C@@H](CC[C@]4(O)C[C@@H](O)CC[C@]34C=O)[C@@]1(O)CC[C@@H]2C1=CC(=O)OC1 [STROPHANTHIDIN] | 11.98 | – | – | cytotoxicity at 41 h, 10 µM (in vitro; human): 100%
NCCCC(=O)O [gamma-AMINOBUTYRIC ACID] | – | – | – | Hs18S ΔCT (HCT-8 host cells (Hs18S); human, 41 h, 10 μM): 0.04; cytotoxicity at 41 h, 10 µM (in vitro; human): 2.6%
BICUCULLINE(-) METHIODIDE | -0.07 | -4.9 | -0.49 | –
BLEOMYCIN (bleomycin B2 shown) | -0.22 | -16.8 | 52.96 | –
CASANTHRANOL [CASANTHRANOL [cascaroside A shown]] | – | – | 50.17 | Cytotoxicity (%) (HCT-8 host cells (Hs18S); 10 µM): 15.4%
COLISTIN SULFATE | 0.01 | 0.4 | 33.43 | –
CYANOCOBALAMIN | -0.32 | -24.5 | 16.98 | –
DEGUELIN(-) | 0.60 | 34.2 | 45.04 | –
GARLICIN | – | – | 4.93 | Cytotoxicity (%) (HCT-8 host cells (Hs18S); 10 µM): -30.8%
IVERMECTIN | -0.05 | -3.4 | 78.97 | % Inhibition (3.3 uM) (Cryptosporidium parvum): 6%
KHAYANTHONE | -0.01 | -0.3 | -5.94 | –
LYSINE (L) HYDROCHLORIDE | -0.15 | -11.0 | -22.55 | –
OMEGA-3-ACID ESTERS (EPA shown) | – | – | 4.36 | Cytotoxicity (%) (HCT-8 host cells (Hs18S); 10 µM): -17.4%
PHYTOL | -0.42 | -33.6 | -12.94 | –
POLYMYXIN B SULFATE | -0.20 | -15.1 | -11.86 | –
POMIFERIN TRIMETHYL ETHER | 0.17 | 11.4 | -34.33 | –
SPIRAMYCIN | – | – | -12.26 | Cytotoxicity (%) (HCT-8 host cells (Hs18S); 10 µM): -12.2%
STROPH[…] LACTONE ACETATE | 2.37 | 80.7 | 96.28 | % Inhibition (3.3 uM) (Cryptosporidium parvum): 19%
TANNIC ACID | 0.27 | 17.0 | -22.61 | –
VERATRINE SULFATE | – | – | 25.98 | Hs18S ΔCT (HCT-8 host cells (Hs18S)): -0.06; Cytotoxicity (%) (HCT-8 host cells (Hs18S); 10 µM): -4.3
